Tested on: human peripheral blood lymphocytes (HPBL)
Assay: in vitro chromosome aberration assay
Assay type: cell-based

SMILES: CC(C)NC(=O)COc1cccc(-c2nc(Nc3ccc4[nH]ncc4c3)c3ccccc3n2)c1 [belumosudil, 2-{3-[4-(1H-indazol-5-ylamino)-2-quinazolinyl]phenoxy}-N-(propan-2-yl) acetamide]
- genotoxicity, chromosome aberration assay: not genotoxic
